Consider 6 substances from US11041010B2, “Hybrid peptidomimetics for use in neuropathic pain” (Uniwersytet Warszawski, priority 2017, dated 2021).

Positions of bridges follow the written chain, without caps; N, C: chain ends. Non-standard residues stand in square brackets, D forms with d. No end group written: not given here. d2Nal = N[C@H](Cc1ccc2ccccc2c1)C(=O)O; Nle = CCCC[C@H](N)C(=O)O; Ahx = NCCCCCC(=O)O; βAla = NCCC(=O)O

Test [1] deals with CCI mice (mouse model of neuropathic pain). Nature of the test: Mouse model of neuropathic pain (CCI), von Frey and cold plate tests taken together, intrathecal administration. The test is classed as in vivo. The following applies: for analgesic activity of the reference compounds (mice, first stage): reason why no ED50 was calculated; for analgesic activity in neuropathic pain (mice): CCI mice, von Frey and cold plate tests, FIGS. 1-7 (B, C). The protocol:
(§1) Albino Swiss mice were subjected to a loose unilateral ligation of the right sciatic nerve (a chronic constriction injury, CCI) according to the model developed by Bennett and Xie, Pain 33, 87-107, […]. […] The tests permitted to determine the analgesic efficiency of the novel compounds in the model of neuropathic pain. In the control mice (due to the absence of hypersensitivity, which characterizes neuropathic pain) at the same time points, a test of tail flick was conducted to determine pain threshold in the acute pain after intrathecal administration of the hybrid peptidomimetics.

Test [2] relates to healthy mice (control mice). Nature of the test: Tail flick test, acute pain threshold in control mice after intrathecal administration. The test is classed as in vivo, mouse. The note with it: for analgesic activity in control mice: healthy mice, FIGS. 1-7 (A). The protocol: as §1
(§2) The results were presented for doses in micrograms, at which a half (50%) of the maximum effect (ED50) is reached. Calculation of the ED50 value requires clear dose-dependent effects.
In general terms: In hot-plate and tail-flick tests a longer latency is read as antinociception.

Test [3] relates to CCI mice (mouse model of neuropathic pain). Nature of the test: Von Frey test (allodynia) in mice with sciatic nerve injury (CCI), intrathecal administration. The test is classed as in vivo. The note with it: mice in the neuropathic pain model, range in brackets. The protocol:
as §1, §2

For test [4] the test system is unchanged. Nature of the test: Cold plate test (hyperalgesia) in mice with sciatic nerve injury (CCI), intrathecal administration. The test is classed as in vivo. The following applies: mice in the neuropathic pain model, cold plate 2° C., range in brackets. As to the method:
as §1, §2

Test [5] shares this test system. Briefly: Mouse model of neuropathic pain (CCI), von Frey and cold plate tests after intravenous administration. The test is classed as in vivo. The following applies: CCI mice, 15, 30 and 120 min, FIGS. 8-9. The protocol: In the second stage of the pharmacological studies, the effect of the peripheral, intravenous administration of the hybrid peptidomimetics according to the invention (UW3, UW5) on the sensitivity to a mechanical stimulus (A) (von Frey test) and thermal stimulus (B) (cold plate test) threshold compared to a control group receiving water for injection was tested on mice in the neuropathy model (FIGS. 8 and 9). The studies were conducted at days 7-14 from the CCI procedure on mice at 15, 30 and 120 min after intravenous administration of the hybrid peptidomimetics UW3 and UW5 in the selected doses.

In test [6] the test system is healthy rats (control rats). Nature of the test: Acute pain threshold in healthy (control) rats after intrathecal administration. The test is classed as in vivo. The following applies: 0.1 μg/5 μl/rat, FIGS. 10-13 (A).
Test [7] deals with CCI rats (rat model of neuropathic pain). Briefly: Rat model of neuropathic pain (CCI), von Frey and cold plate tests after intrathecal administration. Type of test: in vivo. The following applies: 0.1 μg/5 μl/rat, FIGS. 10-13 (B, C). The protocol: Wistar rats were subjected to cannulation for intrathecal administration by a method of Yaksh, T. L., Rudy, T. A., described in Physiol. Behay. 17, 1031-1036, 1976, and seven days after this procedure, a loose unilateral ligation of the right sciatic nerve (a chronic constriction injury, CCI) according to the model developed by Bennett and Xie (1988). After seven days from the CCI procedure, behavioral tests were conducted: the von Frey test and cold plate test to measure hypersensitivity to tactile and thermal stimuli, respectively. Hypersensitivity developed after injury of the nerve to two types of stimuli is a symptom of neuropathy.

For “Y[dA]GF[dA][Nle]DH[d2Nal]RWK-NH2 (lactam 7-12) [UW2]”, in test [1], the “analgesic activity of the reference compounds (mice, first stage)” value (“analgesic activity … (mice, first stage)” below) was “very weak and dose dependency-deprived analgesic activity”.

For the substance “Y[dA]GF[Ahx][Nle]DH[d2Nal]RWK-NH2 (lactam 7-12) [UW3]”, in test [2], the “analgesic activity in control mice” value is “limited analgesic efficiency”. Moreover, the “Von Frey test (allodynia) ED50” value in test [3] is recorded as 0.0004 (0.0001-0.002) μg. Further, the “Cold plate (hyperalgesia) ED50” value in test [4] is recorded as 0.008 (0.005-0.01) μg. Besides, in test [1], the “analgesic activity in neuropathic pain (mice)” value (from here on “analgesic activity … (mice)”) is reported as “higher analgesic efficiency”. For the same substance, the “analgesic efficiency after peripheral, intravenous administration” value in test [5] is reported as “high analgesic efficiency”. In addition, in test [6], the “analgesic activity in healthy (control) rats” value (“analgesic activity in healthy” below) is “very weak activity”. In test [7], the “analgesic activity in the rat model of neuropathic pain” value (shortened to “analgesic activity in the rat model”) is “reaches maximum values”.

Take “Y[dA]GF[Ahx][Ahx][Nle]DH[d2Nal]RWK-NH2 (lactam 8-13) [UW5]”: in test [2], the “analgesic activity in control mice” value is on record as “limited analgesic efficiency”. In test [3], the “Von Frey test (allodynia) ED50” value was 0.02 (0.00003-15) μg. The “Cold plate (hyperalgesia) ED50” value in test [4] was 0.2 (0.008-6.5) μg. Further, the “analgesic activity … (mice)” value in test [1] is “higher analgesic efficiency”. Further, the “analgesic efficiency after peripheral, intravenous administration” value in test [5] is recorded as “high analgesic efficiency”. Also, the “analgesic activity in healthy” value in test [6] is given as “very weak activity”. The “analgesic activity in the rat model” value in test [7] is recorded as “reaches maximum values”.

On to “Y[dA]GF[βAla][Nle]DH[d2Nal]RWK-NH2 (lactam 7-12) [UW4]”, for which, in test [1], the “analgesic activity … (mice, first stage)” value is “very weak and dose dependency-deprived analgesic activity”.

With “Tyr-D-Ala-Gly-Phe-4AMB-Nle-cyclo[Asp-His-D-Nal(2′)-Arg-Trp-Lys]-NH2 [UW6]”, the “analgesic activity … (mice, first stage)” value in test [1] is “very weak and dose dependency-deprived analgesic activity”.

For the substance “Tyr-D-Ala-Gly-Phe-NH2 [UW1, reference compound]”, in test [2] (control mice, dose giving 50% of maximum effect, range in brackets), the “Control mice Tail flick test ED50” value was 0.03 (0.02-0.05) μg. Further, the “analgesic activity in control mice” value in test [2] is “show activity”. In test [3], the “Von Frey test (allodynia) ED50” value is 0.16 (0.1-0.25) μg. Besides, the “Cold plate (hyperalgesia) ED50” value in test [4] is given as 9.3 (2.7-32)^ μg. Besides, the “analgesic activity … (mice)” value in test [1] is on record as “weakened in both or at least one hypersensitivity determining test”. For the same substance, in test [6], the “analgesic activity in healthy” value is “weak activity”. The “analgesic activity in the rat model” value in test [7] is “weak activity”.
